Test results reported in PMC6440464 (PeerJ, 2019).
Several values for one entry are separate records, joined by “and”; a condition that tells them apart may be missing. Equal entries are not always repeated.

Experiment: Stability of the analytes in rat plasma QC samples at different storage conditions
Format: in vitro ADME
Conditions: for Post-preparation stability (4℃ for 24 h) Measured Conc.: extracted plasma samples in auto sampler rack; for Post-preparation stability (4℃ for 24 h) Measured Conc. / Free-thaw stability (3 free-thaw cycles) Measured Conc. / Long-term stability (-80℃ for 15 d) Measured Conc. / Short-term stability (25℃ for 12 h) Measured Conc.: n=5; for Free-thaw stability, Test Conc., AV / Free-thaw stability, Test Conc. / Post-preparation stability, Test Conc., AV / Post-preparation stability, Test Conc. / Short-term stability, Test Conc., AV / Short-term stability, Test Conc. / Long-term stability, Test Conc., AV / Long-term stability, Test Conc.: plasma; for Free-thaw stability, Test Conc., AV / Free-thaw stability, Test Conc.: 3 free-thaw cycles; for Free-thaw stability, Test Conc., AV / Post-preparation stability, Test Conc., AV / Short-term stability, Test Conc., AV / Long-term stability, Test Conc., AV: AV of 5 replicates; for Free-thaw stability, Test Conc. / Post-preparation stability, Test Conc. / Short-term stability, Test Conc. / Long-term stability, Test Conc.: single replicates NO.1-NO.5; for Post-preparation stability, Test Conc., AV / Post-preparation stability, Test Conc.: 4℃ for 24 h; for Short-term stability, Test Conc., AV / Short-term stability, Test Conc.: 25℃ for 12 h; for Long-term stability, Test Conc., AV / Long-term stability, Test Conc.: -80℃ for 15 d; for Free-thaw stability (3 free-thaw cycles) Measured Conc. / Long-term stability (-80℃ for 15 d) Measured Conc. / Short-term stability (25℃ for 12 h) Measured Conc.: rat plasma
Description: The stabilities of Qr, IQ, and QG in plasma were assessed by analyzing QC samples at different storage conditions. The stabilities of three flavonoids in plasma were studied by analyzing three concentration levels of QC samples (n = 5) at room temperature (25 °C) for 12 h, at long-term storage (−80 °C for 15 days), after three freeze (−80 °C) and thaw (room temperature) cycles, and at auto sampler rack storage (4 °C for 24 h).

[1] = high QC, nominal 8400.0 (Qr), 976.0 (IQ), 10000.0 (QG) ng/mL
[2] = low QC, nominal 65.6 (Qr), 48.8 (IQ), 100.0 (QG) ng/mL
[3] = nominal Conc. 48.80 ng/mL, listed as Isoquercitrin (IQ)
[4] = nominal Conc. 244.00 ng/mL, listed as Isoquercitrin (IQ)
[5] = nominal Conc. 976.00 ng/mL, listed as Isoquercitrin (IQ)
[6] = medium QC, nominal 525.0 (Qr), 244.0 (IQ), 1000.0 (QG) ng/mL
[7] = nominal Conc. 65.63 ng/mL, listed as Quercetin (Qr)
[8] = nominal Conc. 525.00 ng/mL, listed as Quercetin (Qr)
[9] = nominal Conc. 8400.00 ng/mL, listed as Quercetin (Qr)

SMILES: O=c1c(O[C@@H]2O[C@H](CO)[C@@H](O)[C@H](O)[C@H]2O)c(-c2ccc(O)c(O)c2)oc2cc(O)cc(O)c12 [IQ, Isoquercitrin]
- Post-preparation stability (4℃ for 24 h) Measured Conc. [1]: 937.6 ± 55.4 ng/mL
- Post-preparation stability (4℃ for 24 h) Measured Conc. [2]: 45.3 ± 1.4 ng/mL
- Post-preparation stability (4℃ for 24 h) Measured Conc.: 255.6 ± 16.0 ng/mL
- Free-thaw stability, Test Conc., AV (nominal Conc. 48.80 ng/mL): 50.35 ng/mL
- Free-thaw stability, Test Conc. [3]: 49.95 ng/mL and 49.90 ng/mL and 50.70 ng/mL and 48.08 ng/mL and 53.12 ng/mL
- Free-thaw stability, Test Conc., AV (nominal Conc. 244.00 ng/mL): 242.47 ng/mL
- Free-thaw stability, Test Conc. [4]: 230.75 ng/mL and 211.89 ng/mL and 256.83 ng/mL and 252.00 ng/mL and 260.86 ng/mL
- Free-thaw stability, Test Conc., AV (nominal Conc. 976.00 ng/mL): 1028.98 ng/mL
- Free-thaw stability, Test Conc. [5]: 934.23 ng/mL and 1056.62 ng/mL and 1064.04 ng/mL and 1091.46 ng/mL and 998.55 ng/mL
- Post-preparation stability, Test Conc., AV (nominal Conc. 48.80 ng/mL): 45.28 ng/mL
- Post-preparation stability, Test Conc. [3]: 45.29 ng/mL and 43.89 ng/mL and 47.57 ng/mL and 44.33 ng/mL and 45.34 ng/mL
- Post-preparation stability, Test Conc., AV (nominal Conc. 244.00 ng/mL): 255.64 ng/mL
- Post-preparation stability, Test Conc. [4]: 246.59 ng/mL and 233.24 ng/mL and 257.98 ng/mL and 268.81 ng/mL and 271.60 ng/mL
- Post-preparation stability, Test Conc., AV (nominal Conc. 976.00 ng/mL): 937.62 ng/mL
- Post-preparation stability, Test Conc. [5]: 857.22 ng/mL and 1007.33 ng/mL and 922.61 ng/mL and 936.47 ng/mL and 964.48 ng/mL
- Short-term stability, Test Conc., AV (nominal Conc. 48.80 ng/mL): 51.25 ng/mL
- Short-term stability, Test Conc. [3]: 51.42 ng/mL and 50.11 ng/mL and 53.70 ng/mL and 49.73 ng/mL and 51.28 ng/mL
- Short-term stability, Test Conc., AV (nominal Conc. 244.00 ng/mL): 228.97 ng/mL
- Short-term stability, Test Conc. [4]: 224.99 ng/mL and 229.24 ng/mL and 227.58 ng/mL and 250.98 ng/mL and 212.08 ng/mL
- Short-term stability, Test Conc., AV (nominal Conc. 976.00 ng/mL): 902.68 ng/mL
- Short-term stability, Test Conc. [5]: 885.52 ng/mL and 865.13 ng/mL and 936.37 ng/mL and 947.50 ng/mL and 878.89 ng/mL
- Long-term stability, Test Conc., AV (nominal Conc. 48.80 ng/mL): 43.53 ng/mL
- Long-term stability, Test Conc. [3]: 40.64 ng/mL and 40.98 ng/mL and 46.59 ng/mL and 45.84 ng/mL and 43.59 ng/mL
- Long-term stability, Test Conc., AV (nominal Conc. 244.00 ng/mL): 226.97 ng/mL
- Long-term stability, Test Conc. [4]: 232.85 ng/mL and 226.55 ng/mL and 237.44 ng/mL and 224.60 ng/mL and 213.40 ng/mL
- Long-term stability, Test Conc., AV (nominal Conc. 976.00 ng/mL): 947.77 ng/mL
- Long-term stability, Test Conc. [5]: 1047.44 ng/mL and 988.88 ng/mL and 924.76 ng/mL and 931.40 ng/mL and 846.39 ng/mL
- Free-thaw stability (3 free-thaw cycles) Measured Conc. [1]: 1029.0 ± 62.9 ng/mL
- Long-term stability (-80℃ for 15 d) Measured Conc. [1]: 947.8 ± 75.3 ng/mL
- Short-term stability (25℃ for 12 h) Measured Conc. [1]: 902.7 ± 36.8 ng/mL
- Free-thaw stability (3 free-thaw cycles) Measured Conc. [2]: 50.4 ± 1.8 ng/mL
- Long-term stability (-80℃ for 15 d) Measured Conc. [2]: 43.5 ± 2.7 ng/mL
- Short-term stability (25℃ for 12 h) Measured Conc. [2]: 51.3 ± 1.6 ng/mL
- Free-thaw stability (3 free-thaw cycles) Measured Conc. [6]: 242.5 ± 20.7 ng/mL
- Long-term stability (-80℃ for 15 d) Measured Conc. [6]: 227.0 ± 9.1 ng/mL
- Short-term stability (25℃ for 12 h) Measured Conc. [6]: 229.0 ± 14.0 ng/mL

SMILES: O=c1c(O)c(-c2ccc(O)c(O)c2)oc2cc(O)cc(O)c12 [Qr, Quercetin]
- Post-preparation stability (4℃ for 24 h) Measured Conc. [1]: 7642.7 ± 675.6 ng/mL
- Post-preparation stability (4℃ for 24 h) Measured Conc. [2]: 61.0 ± 4.5 ng/mL
- Post-preparation stability (4℃ for 24 h) Measured Conc.: 526.3 ± 60.5 ng/mL
- Free-thaw stability, Test Conc., AV (nominal Conc. 65.63 ng/mL): 65.26 ng/mL
- Free-thaw stability, Test Conc. [7]: 66.42 ng/mL and 58.78 ng/mL and 57.77 ng/mL and 73.55 ng/mL and 69.78 ng/mL
- Free-thaw stability, Test Conc., AV (nominal Conc. 525.00 ng/mL): 511.91 ng/mL
- Free-thaw stability, Test Conc. [8]: 492.92 ng/mL and 484.10 ng/mL and 471.66 ng/mL and 550.36 ng/mL and 560.49 ng/mL
- Free-thaw stability, Test Conc., AV (nominal Conc. 8400.00 ng/mL): 8631.34 ng/mL
- Free-thaw stability, Test Conc. [9]: 7999.32 ng/mL and 7943.88 ng/mL and 8238.72 ng/mL and 9682.68 ng/mL and 9292.08 ng/mL
- Post-preparation stability, Test Conc., AV (nominal Conc. 65.63 ng/mL): 61.04 ng/mL
- Post-preparation stability, Test Conc. [7]: 58.85 ng/mL and 54.07 ng/mL and 64.70 ng/mL and 64.32 ng/mL and 63.25 ng/mL
- Post-preparation stability, Test Conc., AV (nominal Conc. 525.00 ng/mL): 526.26 ng/mL
- Post-preparation stability, Test Conc. [8]: 568.94 ng/mL and 459.48 ng/mL and 463.10 ng/mL and 552.93 ng/mL and 586.85 ng/mL
- Post-preparation stability, Test Conc., AV (nominal Conc. 8400.00 ng/mL): 7642.66 ng/mL
- Post-preparation stability, Test Conc. [9]: 6882.12 ng/mL and 7943.04 ng/mL and 7529.76 ng/mL and 8629.32 ng/mL and 7229.04 ng/mL
- Short-term stability, Test Conc., AV (nominal Conc. 65.63 ng/mL): 60.80 ng/mL
- Short-term stability, Test Conc. [7]: 57.16 ng/mL and 57.07 ng/mL and 64.40 ng/mL and 62.26 ng/mL and 63.12 ng/mL
- Short-term stability, Test Conc., AV (nominal Conc. 525.00 ng/mL): 474.02 ng/mL
- Short-term stability, Test Conc. [8]: 478.01 ng/mL and 472.87 ng/mL and 443.05 ng/mL and 442.10 ng/mL and 534.08 ng/mL
- Short-term stability, Test Conc., AV (nominal Conc. 8400.00 ng/mL): 7949.42 ng/mL
- Short-term stability, Test Conc. [9]: 8294.16 ng/mL and 7882.56 ng/mL and 8019.48 ng/mL and 7925.40 ng/mL and 7625.52 ng/mL
- Long-term stability, Test Conc., AV (nominal Conc. 65.63 ng/mL): 59.99 ng/mL
- Long-term stability, Test Conc. [7]: 54.24 ng/mL and 60.01 ng/mL and 62.03 ng/mL and 66.54 ng/mL and 57.14 ng/mL
- Long-term stability, Test Conc., AV (nominal Conc. 525.00 ng/mL): 500.71 ng/mL
- Long-term stability, Test Conc. [8]: 493.55 ng/mL and 501.01 ng/mL and 547.68 ng/mL and 448.04 ng/mL and 513.29 ng/mL
- Long-term stability, Test Conc., AV (nominal Conc. 8400.00 ng/mL): 7982.86 ng/mL
- Long-term stability, Test Conc. [9]: 7842.24 ng/mL and 9005.64 ng/mL and 8321.88 ng/mL and 7922.88 ng/mL and 6821.64 ng/mL
- Free-thaw stability (3 free-thaw cycles) Measured Conc. [1]: 8631.3 ± 801.3 ng/mL
- Long-term stability (-80℃ for 15 d) Measured Conc. [1]: 7982.9 ± 795.7 ng/mL
- Short-term stability (25℃ for 12 h) Measured Conc. [1]: 7949.4 ± 241.7 ng/mL
- Free-thaw stability (3 free-thaw cycles) Measured Conc. [2]: 65.3 ± 6.9 ng/mL
- Long-term stability (-80℃ for 15 d) Measured Conc. [2]: 60.0 ± 4.7 ng/mL
- Short-term stability (25℃ for 12 h) Measured Conc. [2]: 60.8 ± 3.5 ng/mL
- Free-thaw stability (3 free-thaw cycles) Measured Conc. [6]: 511.9 ± 40.6 ng/mL
- Long-term stability (-80℃ for 15 d) Measured Conc. [6]: 500.7 ± 36.0 ng/mL
- Short-term stability (25℃ for 12 h) Measured Conc. [6]: 474.0 ± 37.4 ng/mL
